Experimental data taken from PMC8567104 (Frontiers in Pharmacology, 2021).
“And” between values parts separate entries of the source, which are not always exact repeats. Equal values may be shown once. Read-outs that look alike come from different tables or passages of the source.

Legend:
[1] = target: T1, hNav1.5_I408W_L409C_A410W (WCW mutant) (Homo sapiens, UniProt Q14524, A410W/I408W/L409C); experiment: Open channel block, persistent current of inactivation-deficient WCW mutant; assay type: cell-based; settings: for Hill-coefficient: persistent current
T1 construct: expressed in transfected cells; host or cells: tsA201 (HEK293 derivative)
Procedure: (§1) Electrophysiological experiments were performed as previously described ([Ludolph et al., 2010]; [Föhr et al., 2021]). Briefly, tsA201 cells were used for experiments 24–48 h after transfection. Membrane currents were recorded in the whole-cell recording mode using an EPC-9 amplifier and Patchmaster software (v2x73; HEKA, Lambrecht, Germany ([Hamill et al., 1981])). Before recording, cells were rinsed twice with an extracellular standard solution containing (in mM): 140 NaCl, 5 KCl, 1.5 CaCl2, 1.0 MgCl2, 10 glucose and 12 HEPES (4-(2-hydroxyethyl)piperazine- 1-ethanesulfonic acid; pH 7.3). For establishing activation curves, the concentration of NaCl was reduced to 30 mM to achieve current amplitudes in the range of 1 nA. Lacking cations were replaced equimolar by N-Methyl-D-glucamine (NMDG). Patch pipettes were drawn from borosilicate glass with tip resistances of about 2 MΩ when filled with (in mM): 125 CsF, 10 NaCl, 10 EGTA (ethylene glycol-bis(2-aminoethylether)-N,N,N′,N′-tetraacetic acid), 10 HEPES; pH 7.2. To improve sealing, tips were briefly dipped into 2% dimethylsilane dissolved in dichloromethane.
(§2) Unless otherwise stated, the membrane potential was held at −140 mV from which channel activations were elicited by brief depolarizing pulses to −20 mV of 5 ms duration. In order to minimize voltage errors, the series resistance was compensated up to 80%. Cells with currents larger than 6 nA were excluded from evaluation. Specific protocols are illustrated in figure legends where appropriate.
(§3) Concentration-inhibition curves for estimating Kr (IC 50 at −140 mV; Figure 3), Ki (Figures 8, 13, 14), Ko (Figures 12, 17) or K app (Figure 9) were fitted to the Hill-equation.

hNav1.5 [2] = target: T2, hNav1.5 (Homo sapiens, UniProt Q14524); experiment: Voltage-dependence of fast inactivation; assay type: cell-based; design: expressed in transfected cells; host or cells: tsA201 (HEK293 derivative)
Procedure: as §1, with “dichloromethane. […]” for “dichloromethane.”
FIGURE 5 Voltage-dependence of fast inactivation. […] Voltage-dependence of fast inactivation was determined by measuring sodium currents elicited by 5 ms depolarizations to −20 mV after conditioning pre-pulses for 500 ms to different potentials (range −140 to −45 mV).

hNav1.5 [3] = target: T2, hNav1.5; experiment: Time-dependent development of block (inactivating pre-pulse to −20 mV of variable duration); assay type: cell-based; design: expressed in transfected cells; host or cells: tsA201 (HEK293 derivative); settings: for Amount of τ1 component / Amount of τ2 component / τ1 of block development / τ2 of block development: double exponential fit; for remaining current at the longest inactivation time: inactivation up to 30 s at −20 mV; for time constant of reduction of availability: single exponential, inactivation at −20 mV
Procedure: as §1, §2
Association (k on in µM^−1s^−1) and dissociation rates (k off in s^−1) were estimated from the slope and the y-intercept of a linear regression where the inverse of the fast time constants (1/τ) was plotted against the drug concentration [D] (Kuo et al., 1997). 1/τ=koff+kon∗[D] (9)
The corresponding dissociation constants were calculated according to: Kd=koff/kon (10)
Next, a set of experiments was performed to describe the time course of block development. The protocol is illustrated in Figure 7D. Briefly, after channel activation from a holding potential of −140 mV for control, ample time for full recovery at the holding potential was provided. Thereafter, the channels were inactivated for a variable duration (range: 25 ms–30 s) at a potential of −20 mV. Immediately before the test-pulse, channels were allowed to recover once more at the holding potential to eliminate or minimize the impact from fast inactivation. For evaluation, the current amplitudes obtained for test-pulses were related to their controls. […] For further evaluation, data were normalized with respect to control values (Figure 7B). […] The on-rate (k on ) was directly taken from the slope of the linear regression and the off-rate (k off ) was given by the y-intercept (Eq. 9, 10). For estimating the affinity for the inactivated state, the K i values were separately calculated for each cell according to the relation K i = k off /k on .
FIGURE 7 Time-dependent interaction. […] (B) Data from A, normalized with respect to control. […] Kon and koff values were taken from the slope and the y-intercept of the linear regression, respectively. […] (D) Experimental scheme. Starting from a holding potential of −140 mV, first a control pulse to […] was executed. Thereafter, ample time (2 s) was given to allow for full recovery before channels were inactivated for a variable duration at −20 mV. The test-pulse was carried out after a short recovery at −140 mV. For evaluation, test-pulse amplitudes were related to their controls.
FIGURE 15 Time-dependent interaction of imipridone derivatives.

hNav1.5 [4] = target: T2, hNav1.5; experiment: Interaction with the inactivated state: steady-state parameters (20 s inactivation at −20 mV); assay type: cell-based; design: expressed in transfected cells; host or cells: tsA201 (HEK293 derivative); settings: for Hill-coefficient n: concentration-inhibition curve after 20 s inactivation at −20 mV
Procedure: as §1, §2, §3
I D and I C are the current amplitudes in the presence and absence of the drug, where [D] is the concentration of the drug.
To this end, a double pulse protocol was used as outlined by Figure 8B. […] To minimize drift effects during these long-lasting experiments, each run included its own control. Thus, drug effects as measured by the test-pulse were related to the timely executed control activation. […]

hNav1.5 [5] = target: T2, hNav1.5
Procedure: as §1, §2

hNav1.5 [6] = target: T2, hNav1.5; settings: 40 µM (highest concentration tested); holding potential −140 mV; 30 s preincubation
Procedure: as §1
Unless otherwise stated, the membrane potential was held at −140 mV from which channel activations were elicited by brief depolarizing pulses to −20 mV of 5 ms duration. In order to minimize voltage errors, the series resistance was compensated up to 80%. […]

hNav1.5 [7] = target: T2, hNav1.5; experiment: cell-based
Procedure: as §1, §2

hNav1.5 [8] = target: T2, hNav1.5; settings: 10 µM
Procedure: as §1, §2
Recovery time constants were estimated from double or triple exponential fits according to: I/Imax=1−a1∗e^(−t/τ1)−a2∗e^(−t/τ2)−a3∗e^(−t/τ3) (11)
Variable identifiers have the same meaning as before, with a 1 + a 2 + a 3 = 1.
If a drug interacts with the inactivated state (fast or slow), it is expected that also recovery from inactivation is affected. We analyzed this aspect by the use of a tri-pulse experiment (Figure 10B). After an initial control pulse, sufficient time was provided for full recovery. Next channels were inactivated for 500 ms at −20 mV. The test-pulse was initiated after channels had been allowed to recover at a potential of −140 mV for a variable time (range: 0.2 ms to 2.7 s). For evaluation, the current amplitudes of the test-pulses were related to their controls and plotted versus the recovery time (Figure 10A). To describe the time course of recovery, data points were fitted with double exponential functions (Eq. 11). […] In order to estimate recovery from slow inactivation, the experimental scheme was modified to a prolonged inactivation time (10 s) and an expansion of the recovery time up to 32.8 s (Figure 10D).
FIGURE 10 Recovery from inactivation. (A) Recovery from fast inactivation. The relative amount of available channels versus the recovery time at −140 mV is illustrated. Solid lines represent fits with two exponential functions according to Eq. 11. (B) Experimental scheme. After an initial control pulse, inactivation was performed at −20 mV for 500 ms. The test-pulse was applied after a varying time of recovery. For evaluation, current amplitudes of the test-pulses were related to their controls.

hNav1.5 F1760K mutant = hNav1.5 F1760K mutant (Homo sapiens, UniProt Q14524, F1760K, form not given); settings: inactivated channels
Procedure: as §1, §3

hNav1.5 N406C mutant = hNav1.5 N406C mutant (Homo sapiens, UniProt Q14524, N406C); settings: inactivated channels
Procedure: as §1, §3

[9] = design: method as in Allen et al., 2016; settings: weekly oral dose of 625 mg; patients; ref Allen et al., 2016; cited from earlier work

SMILES: O=C1C2=C(CCN(Cc3ccccc3)C2)N2CCN=C2N1Cc1ccc(C(F)(F)F)cc1 [ONC212]
- Hill-coefficient [1]: 1.4 ± 0.2
- shift of midpoints of fast inactivation (hNav1.5 [2]; 10 µM, 500 ms pre-pulses, corrected for drug independent shift): −4.7 ± 0.4 mV and −4.7 ± 0.42 mV
- Amount of τ1 component (hNav1.5 [3]; 2.5 µM): 8.8 ± 4.5%
- Amount of τ2 component (hNav1.5 [3]; 2.5 µM): 57.4± 6.6%
- τ1 of block development (hNav1.5 [3]; 2.5 µM): 0.2 ± 0.06 s
- τ2 of block development (hNav1.5 [3]; 2.5 µM): 4.6 ± 0.95 s
- Amount of τ1 component (hNav1.5 [3]; 10 µM): 45.2 ± 6.5%
- Amount of τ2 component (hNav1.5 [3]; 10 µM): 46.9 ± 7.2%
- τ1 of block development (hNav1.5 [3]; 10 µM): 0.1 ± 0.03 s
- τ2 of block development (hNav1.5 [3]; 10 µM): 2.2 ± 0.27 s
- IC50 (hNav1.5 [4]; after 20 s inactivation at −20 mV, short recovery at −140 mV, wild type, read-out: half-maximal inhibition (IC50), representing the affinity for the inactivated state (Ki)): 2500 ± 700 nM
- Hill-coefficient n (hNav1.5 [4]): 1.5 ± 0.1

SMILES: Cc1ccccc1CN1C(=O)C2=C(CCN(Cc3ccccc3)C2)N2CCN=C12 [TIC10]
- current amplitude in the presence of TIC10 compared to control (hNav1.5 [5]; 10 µM, holding potential −90 mV, depolarization to −20 mV): about half of its size
- slope (k) of activation curve (hNav1.5 [5]; in the presence of 10 µM, control 7.2 ± 0.6 mV): 7.9 ± 0.8 mV
- potential of half-maximal activation (midpoint of activation curve) (hNav1.5 [5]; in the presence of 10 µM, control −43.1 ± 2.9 mV): −44.8 ± 2.8 mV
- remaining current (of control) (hNav1.5 [6]): 93.2 ± 4.3%
- potential of half-maximal slow inactivation (hNav1.5 [7]; 10 µM, 10 s pre-pulses, control −42.9 ± 5.0 mV): −92.7 ± 7.0 mV
- slope of slow inactivation curve (hNav1.5 [7]; 10 µM, control 21.5 ± 2.7 mV): 12.8 ± 0.9 mV
- availability (remaining current amplitude) at pre-pulse potential 0 mV (hNav1.5 [7]; 10 µM, control 45.6 ± 10.9%): 4.7 ± 2.8%
- inhibition at 10 µM (hNav1.5 [7]; read-out: inhibition normalized to control at 0 mV): 89.7 ± 6.5%
- inhibition at 10 µM (hNav1.5 [7]; read-out: inhibition normalized to control at −40 mV): 88.3 ± 5%
- Amount of τ1 component (hNav1.5 [8]; 10 s inactivation): 36.3 ± 16.0%
- Amount of τ2 component (hNav1.5 [8]; 10 s inactivation): 62.2 ± 15.7%
- τ1 for recovery from slow-inactivation (hNav1.5 [8]; 10 s inactivation): 128.1 ± 80.3 ms
- τ2 for recovery from slow-inactivation (hNav1.5 [8]; 10 s inactivation): 548.4 ± 287.4 ms
- proportion of fast recovering channels (hNav1.5 [8]; 500 ms inactivation at −20 mV, recovery at −140 mV, control 92.6 ± 4.0%): 75.6 ± 7.0%
- recovery time constant τ1 (hNav1.5 [8]; control 1.4 ± 0.6 ms): 2.3 ± 1.2 ms
- recovery time constant τ2 (hNav1.5 [8]; control 23.6 ± 12.0 ms): 267.6 ± 73.1 ms
- Hill-coefficient [1]: 0.9 ± 0.1
- effect on transient current (resting state) ([1]; up to 40 µM): hardly affected
- Hill-coefficient (hNav1.5 F1760K mutant; F1760K mutant): 1.5 ± 0.1
- reduction of affinity of F1760K mutant compared to wild type (hNav1.5 F1760K mutant): more than 20 fold
- Hill-coefficient (hNav1.5 N406C mutant): 1.2 ± 0.1
- maximal plasma concentration [9]: 4.3 µM
- slope of fast inactivation curve (hNav1.5 [2]; in the presence of 10 µM, 5.3 ± 0.9 mV in the absence): 5.4 ± 0.9 mV
- remaining current at the longest inactivation time (hNav1.5 [3]; 2.5 µM, control 59.2 ± 7.7%): 46.0 ± 4.8%
- time constant of reduction of availability (hNav1.5 [3]; 2.5 µM, control 10.1 ± 2.0 s): 5.3 ± 1.9 s
- remaining current at the longest inactivation time (hNav1.5 [3]; 10 µM): 16.9 ± 6.4%
- time constant of reduction of availability (hNav1.5 [3]; 10 µM): 2.0 ± 0.8 s
- Hill-coefficient n (hNav1.5 [4]): 1.2 ± 0.1
